In the test the target is T1, Dual specificity protein kinase TTK (Homo sapiens, UniProt P33981).
T1 sequence (P33981 whole entry): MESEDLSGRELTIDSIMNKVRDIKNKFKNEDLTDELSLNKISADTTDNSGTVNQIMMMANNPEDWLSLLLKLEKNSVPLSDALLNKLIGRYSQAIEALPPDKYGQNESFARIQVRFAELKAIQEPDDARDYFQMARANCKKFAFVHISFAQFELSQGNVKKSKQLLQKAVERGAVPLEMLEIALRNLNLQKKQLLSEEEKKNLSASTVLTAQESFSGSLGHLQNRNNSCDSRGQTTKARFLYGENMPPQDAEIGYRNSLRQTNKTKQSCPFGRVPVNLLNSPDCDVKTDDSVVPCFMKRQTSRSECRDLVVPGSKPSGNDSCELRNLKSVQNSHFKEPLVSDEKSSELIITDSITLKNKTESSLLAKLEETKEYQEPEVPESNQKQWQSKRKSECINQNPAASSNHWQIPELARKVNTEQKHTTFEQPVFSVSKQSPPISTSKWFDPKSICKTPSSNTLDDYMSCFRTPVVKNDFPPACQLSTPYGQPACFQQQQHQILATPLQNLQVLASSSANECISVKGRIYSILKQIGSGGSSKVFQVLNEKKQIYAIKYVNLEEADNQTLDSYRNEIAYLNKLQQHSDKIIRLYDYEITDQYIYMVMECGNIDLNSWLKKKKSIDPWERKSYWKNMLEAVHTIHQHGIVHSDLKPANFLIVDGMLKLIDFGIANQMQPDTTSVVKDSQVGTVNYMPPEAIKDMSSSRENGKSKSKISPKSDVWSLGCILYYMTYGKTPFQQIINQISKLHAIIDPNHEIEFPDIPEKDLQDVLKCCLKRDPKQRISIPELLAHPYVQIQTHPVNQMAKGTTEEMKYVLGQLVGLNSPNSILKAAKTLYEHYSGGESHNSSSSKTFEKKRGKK
Kind of test: Enzyme Assay: The inhibitory activity of compounds against AURKA, AURKB, JAK1, JAK2 and JAK3 was determined in Z′-LYTE® assays run by ThermoFisher Scientific as part of their SelectScreen Biochemical Kinase Profiling Service. The Z′-LYTE biochemical assay format employs a fluorescence-based, coupled-enzyme format and is based on the differential sensitivity of phosphorylated and ….

From ChEMBL document CHEMBL5727296, “Amino-triazolopyridine compounds and their use in treating cancer” (2019) come the findings set out here.

By pIC50 is commonly meant the negative decadic logarithm of the IC50, by convention in mol/L. A lower pIC50 goes with a high IC50.

Molecules are shown by their SMILES. pIC50: −log10 of the molar value.

Description: Enzyme Assay: The inhibitory activity of compounds against AURKA, AURKB, JAK1, JAK2 and JAK3 was determined in Z′-LYTE® assays run by ThermoFisher Scientific as part of their SelectScreen Biochemical Kinase Profiling Service. The Z′-LYTE biochemical assay format employs a fluorescence-based, coupled-enzyme format and is based on the differential sensitivity of phosphorylated and non-phosphorylated peptides to proteolytic cleavage. The peptide substrate is labeled with two fluorophores one at each end that make up a FRET pair. In the primary reaction, the kinase transfers the gamma-phosphate of ATP to a single tyrosine, serine or threonine residue in a synthetic FRET-peptide. In the secondary reaction, a site-specific protease recognises and cleaves non-phosphorylated FRET-peptides. Phosphorylation of FRET-peptides suppresses cleavage by the Development Reagent. Cleavage disrupts FRET between the donor (i.e., coumarin) and acceptor (i.e., fluorescein) fluorophore on the FRET-peptide, whereas uncleaved, phosphorylated FRET-peptides maintain FRET. A ratiometric method, which calculates the ratio (the Emission Ratio) of donor emission to acceptor emission after excitation of the donor fluorophore at 400 nm, is used to quantitate reaction progress. Both cleaved and uncleaved FRET-peptides contribute to the fluorescence signals and therefore to the Emission Ratio. The extent of phosphorylation of the FRET-peptide can be calculated from the Emission Ratio.

The molecule `Cc1cc2ncnn2cc1Nc1ncc2c(n1)n([C@H]1CC[C@@](C)(O)CC1)c(=O)n2C` had a pIC50 of 6.30.
